Test results as given in article PMC8480782, “Efficient Dimerization Disruption of Leishmania infantum Trypanothione Reductase by Triazole-phenyl-thiazoles” (Journal of Medicinal Chemistry, 2021).

Experiments:
[1] = molecular target: T1, human glutathione-disulfide reductase (hGR) (Homo sapiens, UniProt P00390); experiment: hGR oxidoreductase activity, DTNB-coupled assay; type: biochemical
T1 construct: HIS (vector pRSETA); made in house
T1 sequence (P00390 44-522): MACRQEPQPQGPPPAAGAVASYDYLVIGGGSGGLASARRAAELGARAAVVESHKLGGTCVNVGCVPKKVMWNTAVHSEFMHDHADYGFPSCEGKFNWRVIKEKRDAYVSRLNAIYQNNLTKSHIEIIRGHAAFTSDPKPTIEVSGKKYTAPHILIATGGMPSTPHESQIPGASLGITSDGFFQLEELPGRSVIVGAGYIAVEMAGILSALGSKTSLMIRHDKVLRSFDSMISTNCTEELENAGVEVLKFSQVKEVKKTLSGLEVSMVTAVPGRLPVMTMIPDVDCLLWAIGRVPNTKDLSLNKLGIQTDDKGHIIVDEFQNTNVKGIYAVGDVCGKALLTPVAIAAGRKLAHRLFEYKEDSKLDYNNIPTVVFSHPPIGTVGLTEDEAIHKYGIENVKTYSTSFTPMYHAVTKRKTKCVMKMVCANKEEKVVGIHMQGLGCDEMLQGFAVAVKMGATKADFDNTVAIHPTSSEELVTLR
Text: The DNA coding sequences for Homo sapiens GR, T. brucei TryR, and T. congolense TryR were polymerase chain reaction (PCR)-amplified and cloned in the pRSETA plasmid. The DNA coding for hGR (transcript variant 1; NCBI Reference Sequence: NM_000637.5) was purchased from GeneScript. Genomic DNA from T. congolense parasites was kindly provided by Dr. Stefan Magez (University of Vrije, Brussels). Genomic DNA from the T. brucei S16 cell line was kindly provided by José M. Pérez-Victoria. Instituto de Parasitología y Biomedicina “López—Neyra” CSIC. HIS-tagged recombinant T. brucei and T. congolense TryRs (TbTryR and TcoTryR, respectively) were purified from E. coli as already explained for LiTryR.
hGR oxidoreductase activity was determined spectrophotometrically using a DTNB-coupled assay. Briefly, reactions were carried out at 37 °C in 250 μL of HEPES buffer (pH 7.5, 40 mM) containing EDTA (1 mM), NADP^+, (60 μM), DTNB (150 μM), oxidized glutathione (50 μM), NADPH (300 μM), glycerol (0.02%), DMSO (1.75%), and recombinant hGR (7 nM). […] TNB concentration was obtained by multiplying the absorbance values by 100 (50 μM TNB generates 0.5 arbitrary units of absorbance at 412 nm). All of the assays were conducted in at least three independent experiments. Data were analyzed using a nonlinear regression model with GraFit 6 software (Erithacus, Horley, Surrey, U.K.).

[2] = Cytotoxicity in THP-1 monocyte-derived macrophages (LDH activity); type: cell-based, human; conditions: human; 75 μM (maximum concentration assayed); read-out: Cell viability of amastigote-infected THP-1 monocyte-derived macrophages at 75 μM
In short: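 PMA-differentiated THP-1 macrophages, infected with GFP-expressing amastigotes, were treated 72 h at 37 °C in RPMI with 10% horse serum. After SDS lysis, LDH activity measured via lactate/NAD+/NBT formazan formation at 570 nm (Tris pH 8.9, 37 °C); CC50 by nonlinear regression.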

| Compound | inhibitory activity against hGR [1] | viability at 72 h, 75 µM [2] [%] |
| --- | --- | --- |
| NCCCCc1cn(-c2ccc(-c3nc(-c4ccccc4)cs3)c(OCCN3CCNC3=O)c2)nn1.O=C(O)C(F)(F)F [12n] | none of these compounds showed any inhibitory activity |  |
| NCCCCc1cn(-c2ccc(-c3nc(CCc4ccc5c(c4)CCCN5)cs3)c(OCCN3CCNC3=O)c2)nn1.O=C(O)C(F)(F)F.O=C(O)C(F)(F)F [12q] |  | 67 |
| NCCCCc1cn(-c2ccc(-c3nc(-c4ccc(Oc5ccccc5)cc4)c(-c4ccccc4)s3)c(OCCN3CCNC3=O)c2)nn1.O=C(O)C(F)(F)F [19c, 1-(2-(5-(4-(4-Ammoniobutyl)-1H-1,2,3-triazol-1-yl)-2-(4-([4-phenyloxyphenyl]-1-yl)-5-phenylthiazol-2-yl)phenoxy)ethyl)imidazolidin-2-one 2,2,2-Trifluoroacetate] |  | 63 |
| NCCCCc1cn(-c2ccc(-c3nc(CCc4ccc5c(c4)CCO5)cs3)c(OCCN3CCNC3=O)c2)nn1.O=C(O)C(F)(F)F [12r] | none of these compounds showed any inhibitory activity |  |
| NCCCc1cn(-c2ccc(-c3nc(CCc4ccc(-c5ccccc5)cc4)cs3)c(OCCN3CCNC3=O)c2)nn1.O=C(O)C(F)(F)F [12i] |  | 100 |
| NCCCCc1cn(-c2ccc(-c3nc(-c4ccccc4)c(-c4ccccc4)s3)c(OCCN3CCNC3=O)c2)nn1.O=C(O)C(F)(F)F [19a, 1-(2-(5-(4-(4-Ammoniobutyl)-1H-1,2,3-triazol-1-yl)-2-(4,5-diphenylthiazol-2-yl)phenoxy)ethyl)imidazolidin-2-one 2,2,2-Trifluoroacetate] | none of these compounds showed any inhibitory activity |  |
| NCCCCc1cn(-c2ccc(-c3nc(CCc4ccc(-c5ccccc5)cc4)cs3)c(OCCN3CCNC3=O)c2)nn1.O=C(O)C(F)(F)F [12c, 1-(2-(2-(4-(2-([1,1′-Biphenyl]-4-yl)ethyl)thiazol-2-yl)-5-(4-(4-ammoniumbutyl)-1H-1,2,3-triazol-1-yl)phenoxy)ethyl)imidazolidin-2-one 2,2,2-Trifluoroacetate] |  | 100 |
